Values after ≈ are worked out from the molar mass of the structure shown.
Tests used:
[1] = Solubility of testosterone in molten CIA systems
Description: In each solubility study, a molten solvent of single or combination CIA was prepared by heating and melting the CIA system using a water bath. […] The melt suspension was mixed for at least another 30 minutes while maintaining the CIA's molten state.

[2] = Solubility of crystalline drug in water; conditions: 37 °C
[3] = tested on: Sex Hormone Binding Globulin (SHBG), albumin; conditions: cited from earlier work
[4] = Heat of fusion of testosterone by DSC, molten / heat treated testosterone-agent samples; assay type: physicochemical; conditions: pure crystalline testosterone, at melting point of about 150° C.
Description: The heat of fusion (ΔHf) can be measured via Differential Scanning calorimetry (DSC).
Talc is an inert purified hydrated magnesium silicate with a melting point of 1500° C.

[5] = Testosterone solubility in aqueous media (SSF) containing various CIAs; assay type: physicochemical; conditions: Simulated Saliva Fluid (SSF) containing CIA, thermodynamic from solid, Solubility of Testosterone in CIA Containing SSF
Description: Then the sample was filtered through a 0.45 μm polyvinylidene fluoride (PVDF) and the filtrate was analyzed by HPLC.

C[C@]12CC[C@H]3[C@@H](CCC4=CC(=O)CC[C@@]43C)[C@@H]1CC[C@@H]2O [Testosterone]
Solubility of Testosterone in CIA, Theoretical ([1]; Table 24: PEG 8000 50% / oleic acid 50%): 117.1 mg/gm
Solubility of Testosterone in CIA, Actual ([1]; Table 24: molten PEG 8000 50% / oleic acid 50%): 136.2 mg/gm
Solubility of Testosterone in CIA, Actual ([1]; Table 24: molten PEG 8000 50% / vitamin E-TPGS 50%): 137.9 mg/gm
Solubility of Testosterone in CIA, Actual ([1]; Table 24: molten oleic acid 50% / vitamin E-TPGS 50%): 123.6 mg/gm
Solubility of Testosterone in CIA, Actual ([1]; Table 24: molten oleic acid 100%): 58.3 mg/gm
Solubility of Testosterone in CIA, Actual ([1]; Table 24: molten oleic acid 100%, listed as testosterone): about 58.3 mg/gm
Solubility of Testosterone in CIA, Actual ([1]; Table 24: molten polyethylene glycol 8000 100%): 175.9 mg/gm
Solubility of Testosterone in CIA, Actual ([1]; Table 24: molten polyethylene glycol 8000 100%, listed as testosterone): about 175.9 mg/gm
Solubility of Testosterone in CIA, Actual ([1]; Table 24: molten vitamin E-TPGS 100%): 78.9 mg/gm
Solubility of Testosterone in CIA, Actual ([1]; Table 24: molten vitamin E-TPGS 100%, listed as testosterone): about 78.9 mg/gm
Solubility of Testosterone in CIA, Theoretical ([1]; Table 25: PEG 8000 50% / lauroyl polyoxyl-32 glycerides 50%): 130.0 mg/gm
Solubility of Testosterone in CIA, Theoretical ([1]; Table 25: PEG 8000 50% / vitamin E TPGS 50%): 130.6 mg/gm
Solubility of Testosterone in CIA, Actual ([1]; Table 25: molten PEG 8000 50% / lauroyl polyoxyl-32 glycerides 50%): 129.9 mg/gm
Solubility of Testosterone in CIA, Actual ([1]; Table 25: molten PEG 8000 50% / vitamin E TPGS 50%): 144.2 mg/gm
Solubility of Testosterone in CIA, Actual ([1]; Table 25: molten lauroyl polyoxyl-32 glycerides 100%): 81.6 mg/gm
Solubility of Testosterone in CIA, Actual ([1]; Table 25: molten polyethylene glycol 8000 100%): 178.4 mg/gm
Solubility of Testosterone in CIA, Actual ([1]; Table 25: molten vitamin E TPGS 50% / lauroyl polyoxyl-32 glycerides 50%): 114.6 mg/gm
Solubility of Testosterone in CIA, Actual ([1]; Table 25: molten vitamin E TPGS 100%): 82.7 mg/gm
Solubility of Testosterone in CIA, Theoretical ([1]; Table 25: vitamin E TPGS 50% / lauroyl polyoxyl-32 glycerides 50%): 82.2 mg/gm
Solubility of Testosterone in CIA, Actual ([1]; […]): 136.6 mg/gm
solubility [2]: ~27 µg/mL (≈ 93.6 µM)
protein bound in the blood circulation ([3]; blood circulation): 96%
'free' ([3]; in males): 2-3%
bound to Sex Hormone Binding Globulin (SHBG) ([3]; in males): about 44%
bound to albumin ([3]; in males): 50%
heat of fusion (ΔHf) [4]: about 102.4 J/g
solubility ([5]; aqueous with cosolvent or surfactant or cyclodextrin, SSF with 0.25% vitamin E-TPGS): 60.8 µg/mL (≈ 211 µM)
solubility ([5]; aqueous with cosolvent or surfactant or cyclodextrin, SSF with 0.5% vitamin E-TPGS): 90.1 µg/mL (≈ 312 µM)
solubility ([5]; aqueous with cosolvent or surfactant or cyclodextrin, SSF with 5% lauroyl polyoxyl-32 glycerides): 358 µg/mL (≈ 1240 µM)
solubility ([5]; aqueous with cosolvent or surfactant or cyclodextrin, SSF with 5% oleic acid (oleic acid itself not soluble in SSF)): 27 µg/mL (≈ 93.6 µM)
solubility ([5]; aqueous with cosolvent or surfactant or cyclodextrin, SSF with 5% polyethylene glycol): 32 µg/mL (≈ 111 µM)
solubility ([5]; aqueous with cosolvent or surfactant or cyclodextrin, SSF with 5% vitamin E-TPGS): 600 µg/mL (≈ 2080 µM)
solubility ([5]; aqueous with cosolvent or surfactant or cyclodextrin, SSF with 10% lauroyl polyoxyl-32 glycerides): 694 µg/mL (≈ 2410 µM)
solubility ([5]; aqueous with cosolvent or surfactant or cyclodextrin, SSF with 10% oleic acid (oleic acid itself not soluble in SSF)): 29 µg/mL (≈ 101 µM)
solubility ([5]; aqueous with cosolvent or surfactant or cyclodextrin, SSF with 10% polyethylene glycol): 45 µg/mL (≈ 156 µM)
solubility ([5]; aqueous with cosolvent or surfactant or cyclodextrin, SSF with 10% vitamin E-TPGS): 1210 µg/mL (≈ 4200 µM)
solubility ([5]; aqueous with cosolvent or surfactant or cyclodextrin, SSF with 20% lauroyl polyoxyl-32 glycerides): 1350 µg/mL (≈ 4670 µM)
solubility ([5]; aqueous with cosolvent or surfactant or cyclodextrin, SSF with 20% oleic acid (oleic acid itself not soluble in SSF)): 29 µg/mL (≈ 101 µM)
solubility ([5]; aqueous with cosolvent or surfactant or cyclodextrin, SSF with 20% polyethylene glycol): 69.4 µg/mL (≈ 241 µM)
solubility ([5]; aqueous with cosolvent or surfactant or cyclodextrin, SSF with 20% vitamin E-TPGS): 2250 µg/mL (≈ 7800 µM)
solubility ([5]; aqueous with cosolvent or surfactant or cyclodextrin, saturated CIA solution, 0.34 g/mL of lauroyl polyoxyl-32 glycerides in SSF): 2370 µg/mL (≈ 8220 µM)
solubility ([5]; aqueous with cosolvent or surfactant or cyclodextrin, saturated CIA solution, 0.53 g of vitamin E TPGS in SSF): 4190 µg/mL (≈ 14500 µM)
solubility ([5]; aqueous with cosolvent or surfactant or cyclodextrin, saturated CIA solution, 1.73 g/mL of polyethylene glycol in SSF): 1600 µg/mL (≈ 5550 µM)
solubility ([5]; fassgf or other biorelevant, SSF with 0.25% polyethylene glycol): 28.1 µg/mL (≈ 97.4 µM)
solubility ([5]; fassgf or other biorelevant, SSF with 0.5% polyethylene glycol): 27.8 µg/mL (≈ 96.4 µM)
